Reference: ChEMBL document CHEMBL1201862, “PubChem BioAssay data set” (2004)
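Method: 48-hour compound exposure of cells in 96-well plates, five concentrations, linear interpolation of endpoints. GI50 marks 50% less growth.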 The source made the active and inactive calls. Cut-off read from the data, not from the text of the source: active = GI50 up to about 1.1 µM and inactive = higher.

How the values were obtained:
Assay in all cases: DTP human tumour cell line panel, 48 h
MDA-MB-435 = system: MDA-MB-435
SNB-75 = system: SNB-75
HOP-62 = system: HOP-62
Hs-578T = system: Hs-578T
MDA-MB-231 = system: MDA-MB-231
SR = system: SR
CAKI-1 = system: CAKI-1
DU-145 = system: DU-145
IGROV-1 = system: IGROV-1
Malme-3M = system: Malme-3M
OVCAR-8 = system: OVCAR-8
A549 = system: A549
M14 = system: M14
MOLT-4 = system: MOLT-4
EKVX = system: EKVX
SK-MEL-28 = system: SK-MEL-28
ACHN = system: ACHN
SW-620 = system: SW-620
RXF 393 = system: RXF 393
SF-539 = system: SF-539

Compound | GI50 (MDA-MB-435) | GI50 (SNB-75) | GI50 (HOP-62) | GI50 (Hs-578T) | GI50 (MDA-MB-231) | GI50 (SR) | GI50 (CAKI-1) | GI50 (DU-145) | GI50 (IGROV-1) | GI50 (Malme-3M) | GI50 (OVCAR-8) | GI50 (A549) | GI50 (M14) | GI50 (MOLT-4) | GI50 (EKVX) | GI50 (SK-MEL-28) | GI50 (ACHN) | GI50 (SW-620) | GI50 (RXF 393) | GI50 (SF-539)
CC(Cc1ccc(O)cn1)(NC(=O)c1ccccc1)C(=O)O (configuration not stated) | > 100 µM (inactive) | 40.4 µM (inactive) | > 100 µM (inactive) | > 100 µM (inactive) | > 100 µM (inactive) | > 100 µM (inactive) | > 100 µM (inactive) | > 100 µM (inactive) | > 100 µM (inactive) | > 100 µM (inactive) | > 100 µM (inactive) | > 100 µM (inactive) | > 100 µM (inactive) | > 100 µM (inactive) | > 100 µM (inactive) | > 100 µM (inactive) | > 100 µM (inactive) | > 100 µM (inactive) | > 100 µM (inactive) | > 100 µM (inactive)
COc1cccc2c1C(=O)c1c(O)c3c(c(O)c1C2=O)C[C@@](O)(C(=O)CO)C[C@@H]3OC1CC2C(OCN3CN2COC2C(C)OC(O[C@H]4C[C@](O)(C(=O)CO)Cc5c(O)c6c(c(O)c54)C(=O)c4c(OC)cccc4C6=O)CC23)C(C)O1 (some centres not stated) | 0.0891 µM (active) | 0.0151 µM (active) | 0.04 µM (active) | 0.0559 µM (active) | 0.0741 µM (active) | 0.00119 µM (active) | 0.0927 µM (active) | 0.0265 µM (active) | 0.0266 µM (active) | 0.0444 µM (active) | 0.0376 µM (active) | 0.0269 µM (active) | 0.0861 µM (active) | 0.00269 µM (active) | 0.203 µM (active) | 0.157 µM (active) | 0.0634 µM (active) | 0.0187 µM (active) | 0.0106 µM (active) | 0.0377 µM (active)
CCn1c(SCC(=O)NNC(=S)Nc2ccc(F)cc2)nc2ccccc2c1=O | > 100 µM (inactive) | > 100 µM (inactive) | > 100 µM (inactive) | > 100 µM (inactive) | > 100 µM (inactive) | 49.4 µM (inactive) | – | > 100 µM (inactive) | > 100 µM (inactive) | > 100 µM (inactive) | > 100 µM (inactive) | > 100 µM (inactive) | > 100 µM (inactive) | 44.4 µM (inactive) | > 100 µM (inactive) | > 100 µM (inactive) | > 100 µM (inactive) | > 100 µM (inactive) | > 100 µM (inactive) | > 100 µM (inactive)
COC(=O)/C(=C/c1ccc(OC)cc1)c1cc(OC)c(OC)c(OC)c1 | 0.112 µM (active) | 1.29 µM (inactive) | 1.53 µM (inactive) | 0.957 µM (active) | 3.38 µM (inactive) | 0.379 µM (active) | 1.12 µM (inactive) | 1.69 µM (inactive) | 2.48 µM (inactive) | 1.2 µM (inactive) | 4.28 µM (inactive) | 2.99 µM (inactive) | 1.06 µM (active) | 1.44 µM (inactive) | 8.69 µM (inactive) | 5.89 µM (inactive) | 9.93 µM (inactive) | 0.643 µM (active) | 1.24 µM (inactive) | 1.55 µM (inactive)
C[N+]1([O-])C2CCC1CC(OC(=O)C(CO)c1ccccc1)C2 (configuration not stated) | > 100 µM (inactive) | > 100 µM (inactive) | > 100 µM (inactive) | > 100 µM (inactive) | > 100 µM (inactive) | > 36.6 µM (inactive) | > 100 µM (inactive) | > 100 µM (inactive) | > 100 µM (inactive) | > 100 µM (inactive) | > 100 µM (inactive) | > 100 µM (inactive) | > 100 µM (inactive) | > 100 µM (inactive) | > 100 µM (inactive) | > 100 µM (inactive) | > 100 µM (inactive) | > 100 µM (inactive) | > 100 µM (inactive) | > 100 µM (inactive)
O=c1c2cccnc2[nH]c2ccc3scnc3c12 | 9.82 µM (inactive) | 6.31 µM (inactive) | > 10 µM (inactive) | > 10 µM (inactive) | > 10 µM (inactive) | 4.32 µM (inactive) | > 10 µM (inactive) | > 10 µM (inactive) | 4.81 µM (inactive) | > 10 µM (inactive) | > 10 µM (inactive) | 3.96 µM (inactive) | 8.07 µM (inactive) | 4.34 µM (inactive) | > 10 µM (inactive) | > 10 µM (inactive) | 1.87 µM (inactive) | > 10 µM (inactive) | 3.11 µM (inactive) | 6.95 µM (inactive)
COc1ccc2c(c1)C(=O)CC(N)C2 (configuration not stated) | > 100 µM (inactive) | 25.1 µM (inactive) | > 100 µM (inactive) | 42.2 µM (inactive) | > 100 µM (inactive) | 55.7 µM (inactive) | > 100 µM (inactive) | > 100 µM (inactive) | > 100 µM (inactive) | > 100 µM (inactive) | > 100 µM (inactive) | > 100 µM (inactive) | > 100 µM (inactive) | 19.5 µM (inactive) | 57 µM (inactive) | > 100 µM (inactive) | > 100 µM (inactive) | > 100 µM (inactive) | > 100 µM (inactive) | –
COc1ccc(/C=C\c2cc(OC)c(OC)c(OC)c2)cc1OC(=O)CC(N)C(=O)O (configuration not stated) | 0.000146 µM (active) | 0.000459 µM (active) | 0.00382 µM (active) | 0.000426 µM (active) | 0.00119 µM (active) | 0.00577 µM (active) | 0.307 µM (active) | 0.00293 µM (active) | 0.0124 µM (active) | 0.00258 µM (active) | 0.00301 µM (active) | 0.00449 µM (active) | 0.00247 µM (active) | 0.00366 µM (active) | 34.8 µM (inactive) | 0.000597 µM (active) | 0.00437 µM (active) | 0.00135 µM (active) | 0.00166 µM (active) | 0.00222 µM (active)
CC(C)(C)C1CC[C@H](O)[C@H]([C@@H](O)CC2CC(=O)N(c3ccccc3)C(=O)C2)C1 (some centres not stated) | 55.2 µM (inactive) | > 100 µM (inactive) | > 100 µM (inactive) | > 100 µM (inactive) | 67.3 µM (inactive) | 40.9 µM (inactive) | > 100 µM (inactive) | 55.3 µM (inactive) | > 100 µM (inactive) | 65.5 µM (inactive) | 50.7 µM (inactive) | 67.5 µM (inactive) | 43.8 µM (inactive) | 38.9 µM (inactive) | 70 µM (inactive) | > 100 µM (inactive) | 69 µM (inactive) | > 100 µM (inactive) | 64 µM (inactive) | > 100 µM (inactive)
Cc1ncc([N+](=O)[O-])n1CCN(C)CCCCn1ccnc1[N+](=O)[O-] | > 100 µM (inactive) | > 100 µM (inactive) | > 100 µM (inactive) | > 100 µM (inactive) | > 100 µM (inactive) | > 100 µM (inactive) | > 100 µM (inactive) | > 100 µM (inactive) | – | > 100 µM (inactive) | > 100 µM (inactive) | > 100 µM (inactive) | > 100 µM (inactive) | > 100 µM (inactive) | > 100 µM (inactive) | > 100 µM (inactive) | > 100 µM (inactive) | > 100 µM (inactive) | > 100 µM (inactive) | > 100 µM (inactive)
C[C@]12CC[C@@H]3c4ccc(OC(=O)c5ccccc5)cc4CC[C@H]3[C@@H]1CCC2OC(=O)c1cccc2c(=O)c3ccccc3[nH]c12 (some centres not stated) | 3.77 µM (inactive) | 23 µM (inactive) | 22.3 µM (inactive) | 18.1 µM (inactive) | 20.8 µM (inactive) | 25.8 µM (inactive) | 27 µM (inactive) | 19.8 µM (inactive) | 16.5 µM (inactive) | 24.5 µM (inactive) | 18.3 µM (inactive) | 14.2 µM (inactive) | 17.1 µM (inactive) | 63 µM (inactive) | 9.38 µM (inactive) | 15.8 µM (inactive) | 22.3 µM (inactive) | 12.1 µM (inactive) | 14.4 µM (inactive) | 16.6 µM (inactive)
CCC(C)c1cnc(CC(C)C)c(=O)[nH]1 (configuration not stated) | > 100 µM (inactive) | > 100 µM (inactive) | > 100 µM (inactive) | > 100 µM (inactive) | > 100 µM (inactive) | > 100 µM (inactive) | > 100 µM (inactive) | > 100 µM (inactive) | > 100 µM (inactive) | – | > 100 µM (inactive) | > 100 µM (inactive) | > 100 µM (inactive) | > 100 µM (inactive) | > 100 µM (inactive) | > 100 µM (inactive) | > 100 µM (inactive) | > 100 µM (inactive) | > 100 µM (inactive) | –
COC(=O)C1=C(OC(=O)/C(=C/c2ccccc2)c2ccccc2)C(C(=O)OC)[C@@]2(O)[C@@H](C(=O)OC)[C@H](C)C[C@@H]1[C@@H]2C(=O)OC (some centres not stated) | > 100 µM (inactive) | > 100 µM (inactive) | > 100 µM (inactive) | > 100 µM (inactive) | > 100 µM (inactive) | > 100 µM (inactive) | > 100 µM (inactive) | > 100 µM (inactive) | > 100 µM (inactive) | > 100 µM (inactive) | > 100 µM (inactive) | > 100 µM (inactive) | > 100 µM (inactive) | – | > 100 µM (inactive) | > 100 µM (inactive) | > 100 µM (inactive) | > 100 µM (inactive) | 66.2 µM (inactive) | > 100 µM (inactive)
CCCCCCC1OC23OC1CCC2C(O)CCC3O (configuration not stated) | > 100 µM (inactive) | > 100 µM (inactive) | > 100 µM (inactive) | > 100 µM (inactive) | > 100 µM (inactive) | > 100 µM (inactive) | > 100 µM (inactive) | > 100 µM (inactive) | > 100 µM (inactive) | > 100 µM (inactive) | > 100 µM (inactive) | – | – | > 100 µM (inactive) | > 100 µM (inactive) | > 100 µM (inactive) | 97.7 µM (inactive) | > 100 µM (inactive) | > 100 µM (inactive) | > 100 µM (inactive)
